# Reference: patent US11242350B2, “Spirocyclic ROR-gamma modulators” (Escalier Biosciences B.V., priority 2018, dated 2022)
# Biological target: RORγt (Homo sapiens (Human), UniProt P51449)
# Assay: Gal4 ligand binding assay (RORγt Gal fusion luciferase reporter assay in HEK293T cells)
# Format: cell-based
# Settings: RORγt inverse agonists in RORγt Gal fusion assay
# Protocol: The N-terminal DNA binding domains (DBD) of the native RORγ and RORγt receptors have been substituted with that of the yeast GAL4-DBD and stably transfected in HEK293T cells that also stably express luciferase under the regulation by upstream activation sequence of yeast Gal4. These cells constitutively express high level RORγ activity due to binding of endogenous co-factors. Both agonist and inverse agonist activity can be detected. The assay was performed according to kit manufacturer's instructions as follows. 10 mM compound stocks were diluted serially 1:3 with DMSO and further diluted with provided media to generate 10 titration points from 60 μM to 3 nM. These treatment conditions were added to the plates as 2× media in 100 μL volume. Each plate includes a positive control with 10 titration points as well as 6 negative control wells with vehicle only, with final DMSO concentration of 0.2%. RORγ reporter cells were rapidly thawed and added to the plates in 100 μL volume. The plates were incubated for 24 h in a 37° C. humidified 5% CO2 incubator. Media was removed before the addition of room temperature luciferous detection substrate. After 5 minute incubation, relative light units (RLUs) were quantified using a plate reading luminometer. Data was normalized to […] with only 0.2%0DMSO. Before establishing internal controls, ursolic acid was used as control.
# Sequence of RORγt (P51449 269-508): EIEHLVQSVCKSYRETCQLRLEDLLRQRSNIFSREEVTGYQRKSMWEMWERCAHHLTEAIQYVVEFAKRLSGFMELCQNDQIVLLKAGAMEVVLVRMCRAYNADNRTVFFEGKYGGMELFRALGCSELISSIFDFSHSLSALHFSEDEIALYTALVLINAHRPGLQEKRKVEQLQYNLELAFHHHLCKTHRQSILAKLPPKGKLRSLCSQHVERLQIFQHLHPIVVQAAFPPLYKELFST
row,Compound,IC50 [µM]
1,"Cc1cc(C(O)(C(F)(F)F)C(F)(F)F)ccc1-c1cccc(N2CC3(C2)CN(S(C)(=O)=O)C3)c1C [Example 66, 2-(2,2′-dimethyl-3′-(6-(methylsulfonyl)-2,6-diazaspiro[3.3]heptan-2-yl)-[1,1′-biphenyl]-4-yl)-1,1,1,3,3,3-hexafluoropropan-2-ol]",0.05 to 0.25
2,"CC(C)c1cc(CN2CC3(C2)CN(S(C)(=O)=O)C3)cc(F)c1-c1ccc(C(O)(C(F)(F)F)C(F)(F)F)cc1 [Example 15, 1,1,1,3,3,3-hexafluoro-2-(2′-fluoro-6′-isopropyl-4′-((6-(methylsulfonyl)-2,6-diazaspiro[3.3]heptan-2-yl)methyl)-[1,1′-biphenyl]-4-yl)propan-2-ol]",< 0.05
3,"CC(C)(C)c1cc(CN2CC3(C2)CN(S(C)(=O)=O)C3)ccc1-c1ccc(C(O)(C(F)(F)F)C(F)(F)F)cc1 [Example 23, 2-(2′-(tert-butyl)-4′-((6-(methylsulfonyl)-2,6-diazaspiro[3.3]heptan-2-yl)methyl)-[1,1′-biphenyl]-4-yl)-1,1,1,3,3,3-hexafluoropropan-2-ol]",< 0.05
4,"CCc1cc(CN2CC3(CC[S+]([O-])C3)C2)ccc1-c1ccc(C(O)(C(F)(F)F)C(F)(F)F)cc1 (centres unmarked) [Example 25, 2-((2-ethyl-4′-(1,1,1,3,3,3-hexafluoro-2-hydroxypropan-2-yl)-[1,1′-biphenyl]-4-yl)methyl)-6-thia-2-azaspiro[3.4]octane 6-oxide]",> 0.25
5,"CCc1cc(CN2CC3(CCS(=O)(=O)C3)C2)ccc1-c1ccc(C(O)(C(F)(F)F)C(F)(F)F)cc1 [Example 24, 2-((2-ethyl-4′-(1,1,1,3,3,3-hexafluoro-2-hydroxypropan-2-yl)-[1,1′-biphenyl]-4-yl)methyl)-6-thia-2-azaspiro[3.4]octane 6,6-dioxide]",0.05 to 0.25
6,"CCc1cc(CN2CC(CN(C)S(C)(=O)=O)C2)ccc1-c1ccc(C(O)(C(F)(F)F)C(F)(F)F)cc1 [Example 29, N-((1-((2-ethyl-4′-(1,1,1,3,3,3-hexafluoro-2-hydroxypropan-2-yl)-[1,1′-biphenyl]-4-yl)methyl)azetidin-3-yl)methyl)-N-methylmethanesulfonamide]",> 0.25
7,"CCC(C)c1cc(CN2CC3(C2)CN(S(C)(=O)=O)C3)ccc1-c1ccc(C(O)(C(F)(F)F)C(F)(F)F)cc1 (centres unmarked) [Example 13, 2-(2′-(sec-butyl)-4′-((6-(methylsulfonyl)-2,6-diazaspiro[3.3]heptan-2-yl)methyl)-[1,1′-biphenyl]-4-yl)-1,1,1,3,3,3-hexafluoropropan-2-ol]",< 0.05
8,"CCc1cc(CN2CCC3(C2)CS(=O)(=O)C3)ccc1-c1ccc(C(O)(C(F)(F)F)C(F)(F)F)cc1C [Example 16, 6-((2-ethyl-4′-(1,1,1,3,3,3-hexafluoro-2-hydroxypropan-2-yl)-2′-methyl-[1,1′-biphenyl]-4-yl)methyl)-2-thia-6-azaspiro[3.4]octane 2,2-dioxide]",< 0.05
9,"Cc1cc(C(O)(C(F)(F)F)C(F)(F)F)ccc1-c1cccc(N2CC3(C2)CN(S(C)(=O)=O)C3)n1 [Example 67, 1,1,1,3,3,3-hexafluoro-2-(3-methyl-4-(6-(6-(methylsulfonyl)-2,6-diazaspiro[3.3]heptan-2-yl)pyridin-2-yl)phenyl)propan-2-ol]",> 0.25
10,"CC(C)c1c(F)c(CN2CCC3(C2)CN(S(C)(=O)=O)C3)cc(F)c1-c1ccc(C(O)(C(F)(F)F)C(F)(F)F)cc1 [Example 74, 2-(3′,6′-difluoro-2′-isopropyl-4′-((2-(methylsulfonyl)-2,6-diazaspiro[3.4]octan-6-yl)methyl)-[1,1′-biphenyl]-4-yl)-1,1,1,3,3,3-hexafluoropropan-2-ol]",0.05 to 0.25
11,"CCc1nc(CN2CC3(C2)CN(S(C)(=O)=O)C3)ccc1-c1ccc(C(O)(C(F)(F)F)C(F)(F)F)cc1C [Example 73, 2-(4-(2-ethyl-6-((6-(methylsulfonyl)-2,6-diazaspiro[3.3]heptan-2-yl)methyl)pyridin-3-yl)-3-methylphenyl)-1,1,1,3,3,3-hexafluoropropan-2-ol]",> 0.25
12,"CCc1c(F)c(CN2CC3(C2)CN(S(C)(=O)=O)C3)cc(F)c1-c1ccc(C(O)(C(F)(F)F)C(F)(F)F)cc1C [Example 68, 2-(2′-ethyl-3′,6′-difluoro-2-methyl-4′-((6-(methylsulfonyl)-2,6-diazaspiro[3.3]heptan-2-yl)methyl)-[1,1′-biphenyl]-4-yl)-1,1,1,3,3,3-hexafluoropropan-2-ol]",< 0.05
13,"CCc1cc(CN2CC3(CCS(=O)(=O)CC3)C2)ccc1-c1ccc(C(O)(C(F)(F)F)C(F)(F)F)cc1 [Example 3, 2-((2-ethyl-4′-(1,1,1,3,3,3-hexafluoro-2-hydroxypropan-2-yl)-[1,1′-biphenyl]-4-yl)methyl)-7-thia-2-azaspiro[3.5]nonane 7,7-dioxide]",< 0.05
14,"CC(C)c1c(-c2ccc(C(O)(C(F)(F)F)C(F)(F)F)cc2)cc(F)c(CN2CC3(C2)CN(S(C)(=O)=O)C3)c1F [Example 8, 2-(3′,5′-difluoro-2′-isopropyl-4′-((6-(methylsulfonyl)-2,6-diazaspiro[3.3]heptan-2-yl)methyl)-[1,1′-biphenyl]-4-yl)-1,1,1,3,3,3-hexafluoropropan-2-ol]",< 0.05
15,"CC(=O)N1CC2(CN(Cc3ccc(-c4ccc(C(O)(C(F)(F)F)C(F)(F)F)cc4)c(C)c3)C2)C1 [Example 49, 1-(6-((4′-(1,1,1,3,3,3-hexafluoro-2-hydroxypropan-2-yl)-2-methyl-[1,1′-biphenyl]-4-yl)methyl)-2,6-diazaspiro[3.3]heptan-2-yl)ethan-1-one]",> 0.25
16,"CCc1cc(C(O)(C(F)(F)F)C(F)(F)F)ccc1-c1ccc(CN2CC3(C2)CN(S(C)(=O)=O)C3)cc1C [Example 76, 2-(2-ethyl-2′-methyl-4′-((6-(methylsulfonyl)-2,6-diazaspiro[3.3]heptan-2-yl)methyl)-[1,1′-biphenyl]-4-yl)-1,1,1,3,3,3-hexafluoropropan-2-ol]",< 0.05
17,"CCc1cc(CN2CC3(C2)C[S+]([O-])C3)ccc1-c1ccc(C(O)(C(F)(F)F)C(F)(F)F)cc1 [Example 27, 6-((2-ethyl-4′-(1,1,1,3,3,3-hexafluoro-2-hydroxypropan-2-yl)-[1,1′-biphenyl]-4-yl)methyl)-2-thia-6-azaspiro[3.3]heptane 2-oxide]",0.05 to 0.25
18,"CCc1cc(CN2CC3(C2)CN(S(C)(=O)=O)C3)ccc1-c1ccc(C(O)(C(F)(F)F)C(F)(F)F)cc1C#N [Example 65, 2′-ethyl-4-(1,1,1,3,3,3-hexafluoro-2-hydroxypropan-2-yl)-4′-((6-(methylsulfonyl)-2,6-diazaspiro[3.3]heptan-2-yl)methyl)-[1,1′-biphenyl]-2-carbonitrile]",< 0.05
19,"CCc1cc(C(O)(C(F)(F)F)C(F)(F)F)ccc1-c1c(F)cc(CN2CC3(C2)CN(S(C)(=O)=O)C3)c(F)c1CC [Example 71, 2-(2,2′-diethyl-3′,6′-difluoro-4′-((6-(methylsulfonyl)-2,6-diazaspiro[3.3]heptan-2-yl)methyl)-[1,1′-biphenyl]-4-yl)-1,1,1,3,3,3-hexafluoropropan-2-ol]",< 0.05
20,"CCc1cc(CN2CC3(C2)CN(S(C)(=O)=O)C3)ccc1-c1ccc(C(O)(C(F)(F)F)C(F)(F)F)cc1CC [Example 77, 2-(2,2′-diethyl-4′-((6-(methylsulfonyl)-2,6-diazaspiro[3.3]heptan-2-yl)methyl)-[1,1′-biphenyl]-4-yl)-1,1,1,3,3,3-hexafluoropropan-2-ol]",< 0.05
